The target in one assay is T1, IMP-1 (Serratia marcescens, UniProt P52699).
T1 construct: made in house; host or cells: E. coli BL21(DE3) derivative, pET-9a
The assay is described as follows: MBL inhibition, reporter substrate method, IMP-1. The format is biochemical. The settings on record: read-out: Inhibition of IMP-1 (dash in Ki column). The method, then:
Compounds were prepared in DMSO at a final concentration of 50 mM prior to dilution in the assay buffer. The reaction rate was measured as the variation of absorbance observed upon substrate hydrolysis in a UV-Vis spectrophotometer or microplate reader at a wavelength of 300 nm (imipenem, meropenem), 260 nm (cefotaxime), or 482 nm (nitrocefin) and in the presence of a purified MBL enzyme (such as VIM-1, VIM-2, VIM-4, NDM-1, and IMP-1, at a final concentration ranging from 1 to 70 nM).
These enzymes were overproduced in derivatives of E. coli BL21(DE3) carrying a pET-9 a (IMP-1, VIM-1, VIM-2, and VIM-4) or pET-15 b (NDM-1) vector into which the metallo-β-lactamase-encoding open reading frame was cloned. Bacterial strains were grown in the auto-inducing medium, ZYP-5052, supplemented with 50 μg/mL kanamycin for 24 h at 37 °C [38]. IMP-1, VIM-1, VIM-2, and VIM-4 were purified by ion-exchange and gel filtration chromatography using an AKTA Purifier platform (GE Healthcare, Uppsala, Sweden) as previously described. NDM-1 (residues 37-270) was produced as an amino-terminal 6 xHis-tag fusion protein and was purified using affinity chromatography. After growth for 26 h at 25 °C, bacterial cells were harvested by centrifugation (10,000× g, 30 min, 4 °C), resuspended in 10 mM HEPES buffer (pH 7.5) containing 0.15 M NaCl (buffer A) in one-fifth of the original culture volume, and lysed by sonication. Cellular debris was removed by centrifugation (12,000× g, 40 min, 4 °C). The clarified sample was loaded on a HisTrap HP column (bed volume, 5 mL; GE Healthcare), followed by a wash step (25 mL) with buffer A containing 20 mM imidazole. Proteins were eluted using buffer A containing 350 mM imidazole. The resulting protein sample was desalted (HiPrep 26/10 Desalting column, GE Healthcare) using 20 mM triethanolamine (pH 7.2) supplemented with 50 μM ZnSO4 and concentrated using an Amicon Ultra-15 (MW cut-off, 10 kDa; Millipore, Burlington, MA, USA). The concentrated sample was loaded on a Superdex 75 prep grade column (XK16/100 column; bed volume, 140 mL; GE Healthcare) and the proteins eluted with buffer A containing 50 μM ZnSO4. The active fractions were pooled and stored at −20 °C. The purity of the protein preparations was estimated >95% by SDS-PAGE analysis. The authenticity of the enzyme preparations was confirmed by electron spray ionization mass spectrometry, as previously described.
The inhibition constants (Ki) were determined on the basis of a model of competitive inhibition by analyzing the dependence of the ratio v0/vi (v0, hydrolysis velocity in the absence of inhibitor; vi, hydrolysis velocity in the presence of inhibitor) as a function of [I] as already described. The slope of the plot of v0/vi vs. [I], which corresponds to Km^S/(Km^S + [S])Ki (where Km^S is the Km value of the reporter substrate and [S] its concentration in the reaction mixture) and allowed the calculation of the Ki value. Alternatively, a Dixon plot analysis was carried out by measuring the initial hydrolysis rates in the presence of variable concentrations of inhibitor and substrate. This allowed Ki values to be determined and supported the hypothesis that the various compounds behaved as competitive inhibitors of the various tested enzymes. The assays were performed in triplicate.

The target in a further assay is T2, VIM-2 (Escherichia coli, UniProt Q5U7L7).
T2 construct: made in house; host or cells: E. coli BL21(DE3) derivative, pET-9a
The assay is described as follows: Isothermal titration calorimetry of binding to VIM-2. The method, then: ITC titrations were performed on a MicroCal ITC200 (GE-Malvern) equipped with a 200 µL Hastelloy sample cell and an automated 40 µL glass syringe rotating at 1000 rpm. VIM-2 in 10 mM Hepes-NaOH, 0.15 M NaCl, 50 µM ZnSO4, pH 7.5 was diluted to the desired concentration with the same buffer and was brought to a DMSO concentration identical to that of the injected compound. The tested compound was solubilized in DMSO at 20 mM concentration and was diluted to 200 µM with the enzyme buffer, resulting in a final DMSO concentration of 1%.
In a standard experiment, VIM-2 (19 µM) was titrated by one initiating injection (0.5 µL) followed by 19 injections (2 µL) of compound (200 µM) at an interval of 150 s. Dilution heat of compound injections into buffer, at the corresponding DMSO concentration, were subtracted from raw data. The data so obtained were fitted via nonlinear least squares minimization method to determine binding stoichiometry (n), association constant (Ka), and change in enthalpy of binding (∆H°b) using ORIGIN 7 software v.7 (OriginLab, Northampton, MA, USA). In the fitting procedure, the compound concentration was lowered in order to provide n around 1 and to take compound solubility into account under ITC conditions. The Gibbs free energy of binding, ∆G°b, was calculated from Ka (∆G°b = −RT ln Ka) and the entropic term, T∆S°b, was derived from the Gibbs–Helmholtz equation using the experimental ∆H°b value (∆G°b = ∆H°b − T∆S°b).

The target of the next assay is T3, CphA (Aeromonas hydrophila, UniProt P26918).
T3 construct: made in house
T3 sequence (P26918 28-254): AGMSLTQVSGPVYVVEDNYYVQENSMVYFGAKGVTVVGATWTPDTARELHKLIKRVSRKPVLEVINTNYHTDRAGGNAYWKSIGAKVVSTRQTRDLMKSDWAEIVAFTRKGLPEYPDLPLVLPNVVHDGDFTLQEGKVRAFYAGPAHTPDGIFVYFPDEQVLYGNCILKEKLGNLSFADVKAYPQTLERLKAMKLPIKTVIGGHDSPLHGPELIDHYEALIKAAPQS
The assay is described as follows: MBL inhibition, CphA (imipenem hydrolysis). It counts as biochemical. Conditions: read-out: Percentage of Inhibition at 100 μM Inhibitor, CphA. The method, then: Compounds were prepared as 10 mM solutions in DMSO before dilution with appropriate buffers. Buffers were 25 mM Hepes pH 7.5 for CphA or 25 mM Hepes pH 7.5, 50 µM ZnCl2 for L1. The rates in the absence of inhibitor were not modified by addition of 1% DMSO. CphA and L1 enzymes, purified as previously described, were used at concentrations between 0.2 and 0.8 nM, respectively. The enzyme and the inhibitor (100 µM) were pre-incubated for 30 min in a volume of 495 µL at room temperature. The hydrolysis of a solution of 100 µM imipenem for CphA was monitored by following the absorbance variation at 300 nm using a Specord 50 PLUS spectrophotometer (Analytik Jena, Jena, Germany). For L1, the reporter substrate was nitrocefin (100 µM). The enzyme activity was measured by following the absorbance variation at 482 nm. The substrate hydrolysis was done at 30 °C. The activity was tested by measuring the initial rates in three samples without inhibitor that allowed to determine the percentage of residual β-lactamase activity in the presence of inhibitors. […] The Hanes linearization of the Henri–Michaelis equation was used, and Ki was calculated on the basis of the following equation, v = (Vmax.S)/[S + Km(1 + I/Ki)]. […]

Consider one molecule from PMC7465886, “4-(N-Alkyl- and -Acyl-amino)-1,2,4-triazole-3-thione Analogs as Metallo-β-Lactamase Inhibitors: Impact of 4-Linker on Potency and Spectrum of Inhibition” (Biomolecules, 2020).

T1 sequence (P52699 19-246 limits assumed): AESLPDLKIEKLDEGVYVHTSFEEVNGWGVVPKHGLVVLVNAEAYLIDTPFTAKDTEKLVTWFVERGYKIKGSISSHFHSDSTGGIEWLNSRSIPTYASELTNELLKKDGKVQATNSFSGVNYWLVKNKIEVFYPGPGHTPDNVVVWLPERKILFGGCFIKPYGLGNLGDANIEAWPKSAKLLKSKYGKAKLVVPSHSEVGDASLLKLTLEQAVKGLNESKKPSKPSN

Usually inhibition stands for the change of the read-out against control, counted positive when it falls. One may read the Kd as the constant that tells how readily two partners part at equilibrium. Higher therefore signals a looser complex. In the case of `O=C(O)c1ccccc1CNn1c(-c2ccccc2)n[nH]c1=S` [Compound 1], the inhibition at 100 µM at IMP-1 is below 40%. Moreover, at VIM-2, the affinity, expressed as Kd, was 358 nM. In addition, at VIM-2 (25 °C), the Ka turned out to be 2.8 ± 0.4 µM⁻¹; the “n, stoichiometry of binding” value came to 1.01 ± 0.01; the “∆H°b” value was -6.3 ± 0.1 kcal/mol. For the same molecule, on VIM-2 (25 °C, calculated from Ka), the “∆G°b” value is -8.8 kcal/mol. On VIM-2 (25 °C, from Gibbs–Helmholtz equation), the “T∆S°b” value worked out at 2.5 kcal/mol. Also, the inhibition at 100 µM on CphA came out at 60%.
